In patent US11028087B2, “2,6-disubstituted-9-cyclopentyl-9H-purines, use thereof as medicaments, and pharmaceutical compositions” (UNIVERZITA PALACKEHO V OLOMOUCI, priority 2017, dated 2021):
Numbering of substitutions follows the chain as printed.

How the values were obtained:
[1] = test system: MV4-11 (acute myeloid leukemia, FLT3-ITD positive); assay: Calcein AM cytotoxicity assay; assay type: cell-based; details: Homo sapiens, 72 h; MV4-11; Calcein AM, three days after drug addition; read-out: EC50 values (μM) MV4-11
Text: (§1) Cytotoxicity of the compounds is the major property determining their anticancer effect in vivo. One of the parameters used, as the basis for cytotoxicity assays, is the integrity of cytoplasmic membrane of viable cells. For example, a microtiter assay, which uses acetomethoxy derivate of calcein (Calcein AM), is widely used for evaluation of cell proliferation and cytotoxicity. This assay is used in drug screening programs and in chemosensitivity testing. Intracellular esterases of viable cells convert calcein AM to green-fluorescent calcein of which signal corresponds to the number of viable cells in the culture.
(§2) We have been using the following cell lines: MV4-11 (acute myeloid leukemia, FLT3-ITD positive), MOLM-13 (acute myeloid leukemia, FLT3-ITD positive), THP-1 (acute myeloid leukemia, wt FLT3), U937 (monocytic leukemia, wt FLT3), EOL-1 (eosinophilic leukaemia, carrying the fusion FIP1L1-PDGFRA), H1703 (non-small cell lung carcinoma, PDGFRA amplification). […] K562 and MCF-7 cell lines were maintained in DMEM supplemented with 10% fetal bovine serum, penicilin (100 U/ml) and streptomycin (100 μg/ml). All cell lines were cultivated at 37° C. in 5% CO2. For cytotoxicity assays, cells were seeded in appropriate densities into 96 well plates and the next day tested compounds were added at various concentrations in triplicates. Three days after drug addition, Calcein AM solution (final concentration 1 μg/ml; Thermo Scientific, USA) was added into each well and incubated for 1 h.

[2] = test system: U937 (monocytic leukemia, wt FLT3); assay: Calcein AM cytotoxicity assay; assay type: cell-based; details: Homo sapiens, U-937, 72 h; U937; Calcein AM, three days; read-out: EC50 values (μM) U937
Text: as §1, §2

[3] = test system: EOL-1 (eosinophilic leukaemia, carrying the fusion FIP1L1-PDGFRA); assay: Calcein AM cytotoxicity assay; assay type: cell-based; details: Homo sapiens, EOL1, 72 h; EOL-1; Calcein AM, three days; read-out: EC50 values (μM) EOL-1
Text: as §1, §2

[4] = test system: MOLM-13 (acute myeloid leukemia, FLT3-ITD positive); assay: Calcein AM cytotoxicity assay; assay type: cell-based; details: Homo sapiens, 72 h; MOLM-13; Calcein AM, three days; read-out: EC50 values (μM) MOLM-13
Text: as §1, §2

MCF-7 = assay: Calcein AM cytotoxicity assay; assay type: cell-based; details: Homo sapiens, MCF7, 72 h; MCF-7; Calcein AM, three days; read-out: EC50 values (μM) MCF-7
Text: as §1, §2

K562 = assay: Calcein AM cytotoxicity assay; assay type: cell-based; details: Homo sapiens, 72 h; K562; Calcein AM, three days; read-out: EC50 values (μM) K562
Text: as §1, §2

[5] = test system: THP-1 (acute myeloid leukemia, wt FLT3); assay: Calcein AM cytotoxicity assay; assay type: cell-based; details: Homo sapiens, 72 h; THP-1; Calcein AM, three days; read-out: EC50 values (μM) THP-1
Text: as §1, §2

[6] = test system: Kasumi-1 (acute myeloid leukemia, KIT mutation Asn822Lys); assay: Calcein AM cytotoxicity assay; assay type: cell-based; details: Homo sapiens, 72 h; Kasumi-1; Calcein AM, three days; read-out: EC50 values (μM) Kasumi-1
Text: as §1
We have been using the following cell lines: MV4-11 (acute myeloid leukemia, FLT3-ITD positive), MOLM-13 (acute myeloid leukemia, FLT3-ITD positive), THP-1 (acute myeloid leukemia, wt FLT3), U937 (monocytic leukemia, wt FLT3), EOL-1 (eosinophilic leukaemia, carrying the fusion FIP1L1-PDGFRA), H1703 (non-small cell lung carcinoma, PDGFRA amplification). They were maintained in RPMI-1640 supplemented with 10% fetal bovine serum, penicillin (100 U/ml) and streptomycin (100 μg/ml). Kasumi-1 (acute myeloid leukemia, KIT mutation Asn822Lys) cells were cultivated in RPMI-1640 supplemented with 15% fetal bovine serum, penicillin (100 U/ml) and streptomycin (100 μg/ml). K562 and MCF-7 cell lines were maintained in DMEM supplemented with 10% fetal bovine serum, penicilin (100 U/ml) and streptomycin (100 μg/ml). All cell lines were cultivated at 37° C. in 5% CO2. For cytotoxicity assays, cells were seeded in appropriate densities into 96 well plates and the next day tested compounds were added at various concentrations in triplicates. Three days after drug addition, Calcein AM solution (final concentration 1 μg/ml; Thermo Scientific, USA) was added into each well and incubated for 1 h. After this incubation period, fluorescence of the live cells was measured at 485 nm/538 nm (ex/em) with a Fluoroskan Ascent microplate reader (Labsystems).

HL60 = assay: Calcein AM cytotoxicity assay; assay type: cell-based; details: Homo sapiens, HL-60, 72 h, three days
CDK1/Cyclin B = target: T1, CDK1/Cyclin B (Homo sapiens, UniProt P06493); assay: Kinase inhibition assay with [γ-33P]ATP; assay type: biochemical; details: histone H1, 15 μM ATP
T1 construct: made in house; host or cells: Sf9 insect cells, baculoviral infection
T1 sequence (P06493 whole entry, species assumed): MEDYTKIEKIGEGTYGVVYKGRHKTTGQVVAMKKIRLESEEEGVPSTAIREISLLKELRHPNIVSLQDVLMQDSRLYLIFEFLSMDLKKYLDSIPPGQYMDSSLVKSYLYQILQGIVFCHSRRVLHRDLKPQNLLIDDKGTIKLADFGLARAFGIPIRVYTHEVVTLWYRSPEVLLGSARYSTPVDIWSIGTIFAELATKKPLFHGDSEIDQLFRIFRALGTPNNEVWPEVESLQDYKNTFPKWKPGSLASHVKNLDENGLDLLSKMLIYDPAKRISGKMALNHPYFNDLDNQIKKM
T1 sequence (P14635 whole entry partner, species assumed): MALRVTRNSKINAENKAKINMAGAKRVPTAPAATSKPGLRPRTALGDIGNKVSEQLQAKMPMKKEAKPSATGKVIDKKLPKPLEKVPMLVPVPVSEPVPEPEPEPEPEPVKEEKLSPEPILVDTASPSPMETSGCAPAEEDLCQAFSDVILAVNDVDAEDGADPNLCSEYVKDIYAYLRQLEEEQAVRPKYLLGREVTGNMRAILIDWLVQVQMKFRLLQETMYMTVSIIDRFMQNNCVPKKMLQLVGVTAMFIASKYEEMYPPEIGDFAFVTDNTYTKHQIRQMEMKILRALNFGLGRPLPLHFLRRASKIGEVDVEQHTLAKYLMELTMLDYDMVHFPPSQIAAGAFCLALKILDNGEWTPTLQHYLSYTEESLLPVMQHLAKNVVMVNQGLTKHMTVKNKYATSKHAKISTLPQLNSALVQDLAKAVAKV
Procedure: (§3) CDK1/Cyclin B and CDK2/Cyclin E kinases were produced in Sf9 insect cells via baculoviral infection and purified on a NiNTA column (Qiagen). CDK5/p35 and CDK7Cyclin H/MAT1, FLT3 WT, FLT3-ITD and FLT3 D835 were purchased from ProQinase GmbH. The kinase reactions were assayed with 1 mg/mL histone H1 (for CDK1, CDK2 and CDK5), (YSPTSPS)2KK peptide (for CDK7) or AGLT substrate (for FLT3) in the presence of 15/15/0.15/1.5/1 μM ATP (for CDK1/CDK2/CDK5/CDK7/FLT3), 0.05 μCi [γ-^33P]ATP and of the test compound in a final volume of 10 μL, all in a reaction buffer (60 mM HEPES-NaOH, pH 7.5, 3 mM MgCl2, 3 mM MnCl2, 3 μM Na-orthovanadate, 1.2 mM DTT, 2.5 μg/50 μl PEG20,000). The reactions were stopped by adding 5 μL of 3% aq H3PO4. Aliquots were spotted onto P-81 phosphocellulose (Whatman), washed 3× with 0.5% aq H3PO4 and finally air-dried.

CDK5/p35 = target: T2, CDK5/p35 (Homo sapiens, UniProt Q00535); assay: Kinase inhibition assay with [γ-33P]ATP; assay type: biochemical; details: histone H1, 0.15 μM ATP
T2 construct: purchased ProQinase GmbH
T2 sequence (Q00535 whole entry): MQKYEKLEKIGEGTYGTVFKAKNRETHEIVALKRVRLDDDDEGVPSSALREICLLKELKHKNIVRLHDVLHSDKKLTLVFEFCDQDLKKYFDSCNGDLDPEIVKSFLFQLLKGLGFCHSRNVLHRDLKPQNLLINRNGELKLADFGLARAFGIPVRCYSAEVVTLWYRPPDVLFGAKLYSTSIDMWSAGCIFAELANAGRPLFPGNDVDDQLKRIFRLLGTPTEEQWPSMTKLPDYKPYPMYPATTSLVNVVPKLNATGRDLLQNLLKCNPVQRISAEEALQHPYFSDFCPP
T2 sequence (Q15078 whole entry partner): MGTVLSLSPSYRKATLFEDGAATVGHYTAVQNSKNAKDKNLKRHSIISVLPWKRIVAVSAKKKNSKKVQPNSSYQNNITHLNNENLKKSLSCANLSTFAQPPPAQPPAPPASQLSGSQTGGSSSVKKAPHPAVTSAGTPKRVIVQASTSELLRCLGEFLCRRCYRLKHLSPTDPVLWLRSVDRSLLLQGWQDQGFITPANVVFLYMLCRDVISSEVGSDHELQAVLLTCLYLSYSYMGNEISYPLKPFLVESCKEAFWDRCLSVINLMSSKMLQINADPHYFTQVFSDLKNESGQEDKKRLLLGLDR
Procedure: as §3

CDK2/Cyclin E = target: T3, CDK2/Cyclin E (Homo sapiens, UniProt P24941); assay: Kinase inhibition assay with [γ-33P]ATP; assay type: biochemical; details: histone H1, 15 μM ATP; read-out: IC50 values (μM) CDK2
T3 construct: made in house; host or cells: Sf9 insect cells, baculoviral infection
Procedure: as §3

FLT3 WT = target: T4, FLT3 WT (Homo sapiens, UniProt P36888); assay: Kinase inhibition assay with [γ-33P]ATP; assay type: biochemical; details: AGLT substrate, 1 μM ATP
T4 construct: purchased ProQinase GmbH
T4 sequence (P36888 27-993): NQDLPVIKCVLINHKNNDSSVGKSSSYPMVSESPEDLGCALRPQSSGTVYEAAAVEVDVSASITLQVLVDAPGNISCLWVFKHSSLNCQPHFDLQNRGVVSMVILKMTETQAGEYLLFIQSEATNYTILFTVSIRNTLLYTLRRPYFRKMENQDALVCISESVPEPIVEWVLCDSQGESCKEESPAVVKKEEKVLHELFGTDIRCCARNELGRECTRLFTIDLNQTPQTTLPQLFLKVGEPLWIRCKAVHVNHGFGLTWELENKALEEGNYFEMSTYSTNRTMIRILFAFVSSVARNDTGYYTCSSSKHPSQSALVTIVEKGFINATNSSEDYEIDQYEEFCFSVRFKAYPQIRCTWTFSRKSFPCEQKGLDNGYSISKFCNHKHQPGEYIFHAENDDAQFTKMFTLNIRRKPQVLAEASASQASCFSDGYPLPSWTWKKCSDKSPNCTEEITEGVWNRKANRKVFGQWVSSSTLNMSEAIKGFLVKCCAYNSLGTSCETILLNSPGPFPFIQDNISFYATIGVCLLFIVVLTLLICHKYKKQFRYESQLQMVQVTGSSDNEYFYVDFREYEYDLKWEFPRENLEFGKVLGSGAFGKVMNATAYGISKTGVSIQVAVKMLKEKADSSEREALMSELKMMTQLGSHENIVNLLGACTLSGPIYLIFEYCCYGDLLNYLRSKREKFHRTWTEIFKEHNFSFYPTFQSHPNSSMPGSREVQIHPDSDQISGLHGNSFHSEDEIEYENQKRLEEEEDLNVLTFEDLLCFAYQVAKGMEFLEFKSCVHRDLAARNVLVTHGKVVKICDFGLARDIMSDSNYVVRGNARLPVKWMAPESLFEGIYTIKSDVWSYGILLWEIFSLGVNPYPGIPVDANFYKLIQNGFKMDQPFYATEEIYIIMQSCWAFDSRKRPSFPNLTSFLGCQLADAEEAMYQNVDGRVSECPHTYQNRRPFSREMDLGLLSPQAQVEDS
Procedure: as §3

FLT3 D835 = target: T5, FLT3 D835 (Homo sapiens, UniProt P36888); assay: Kinase inhibition assay with [γ-33P]ATP; assay type: biochemical; details: AGLT substrate, 1 μM ATP
T5 sequence (P36888 1-993 D835Y): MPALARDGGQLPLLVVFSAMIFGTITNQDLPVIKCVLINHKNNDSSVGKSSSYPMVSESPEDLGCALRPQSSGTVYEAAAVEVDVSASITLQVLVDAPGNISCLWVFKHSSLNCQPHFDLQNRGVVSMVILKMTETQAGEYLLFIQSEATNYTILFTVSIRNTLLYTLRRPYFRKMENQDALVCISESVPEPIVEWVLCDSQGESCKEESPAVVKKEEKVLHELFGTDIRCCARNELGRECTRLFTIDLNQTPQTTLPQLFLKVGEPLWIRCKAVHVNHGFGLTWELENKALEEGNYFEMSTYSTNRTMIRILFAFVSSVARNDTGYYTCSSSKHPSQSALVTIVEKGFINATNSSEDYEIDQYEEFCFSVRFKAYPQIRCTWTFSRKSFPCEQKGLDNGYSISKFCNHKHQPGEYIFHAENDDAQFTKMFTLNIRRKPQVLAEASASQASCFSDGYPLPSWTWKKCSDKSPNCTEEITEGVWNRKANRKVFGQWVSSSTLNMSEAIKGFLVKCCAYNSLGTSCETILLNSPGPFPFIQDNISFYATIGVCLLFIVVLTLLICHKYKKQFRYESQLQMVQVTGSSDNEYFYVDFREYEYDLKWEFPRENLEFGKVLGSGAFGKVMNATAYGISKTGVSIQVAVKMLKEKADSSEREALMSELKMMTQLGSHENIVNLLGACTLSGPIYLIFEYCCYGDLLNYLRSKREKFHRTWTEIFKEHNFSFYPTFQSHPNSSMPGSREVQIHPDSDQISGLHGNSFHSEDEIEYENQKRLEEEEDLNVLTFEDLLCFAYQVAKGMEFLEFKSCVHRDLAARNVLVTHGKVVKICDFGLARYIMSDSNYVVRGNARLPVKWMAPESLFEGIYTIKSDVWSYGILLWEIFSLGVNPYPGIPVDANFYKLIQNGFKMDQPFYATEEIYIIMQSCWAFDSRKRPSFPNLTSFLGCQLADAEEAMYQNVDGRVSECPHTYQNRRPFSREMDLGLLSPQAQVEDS
Procedure: as §3

FLT3-ITD = target: T6, FLT3-ITD (Homo sapiens, UniProt P36888); assay: Kinase inhibition assay with [γ-33P]ATP; assay type: biochemical; details: AGLT substrate, 1 μM ATP; read-out: IC50 values (μM) FLT3 ITD
T6 sequence (P36888 1-993): T5 sequence (P36888 1-993 D835Y) with Y835D
Procedure: as §3

IC50 (CDK1/Cyclin B) [µM] | IC50 (CDK5/p35) [µM] | IC50 (CDK2/Cyclin E) [µM] | IC50 (FLT3 WT) [µM] | IC50 (FLT3 D835) [µM] | IC50 (FLT3-ITD) [µM] | SMILES | EC50 [1] [µM] | EC50 [2] [µM] | EC50 [3] [µM] | EC50 [4] [µM] | EC50 (MCF-7) [µM] | EC50 (K562) [µM] | EC50 [5] [µM] | EC50 [6] [µM] | EC50 (HL60) [µM]
– | – | – | – | – | – | NC1CCC(Nc2nc(Nc3ccc(CN4CC5(COC5)C4)nc3)c3ncn(C4CCCC4)c3n2)CC1 (stereo not drawn) [Compound 5] | 0.011 | 0.44 | 0.019 | 0.014 | 0.41 | 0.432 | 0.903 | 0.588 | 1.21
– | – | – | – | – | – | CCN1CC2(C1)CN(Cc1ccc(Nc3nc(NC4CCC(O)CC4)nc4c3ncn4C3CCCC3)cc1)C2 (stereo not drawn) [Compound 8] | 0.042 | 1.35 | 0.049 | 0.056 | 0.22 | 0.391 | 2.1 | 0.636 | 1.42
0.04 | 0.044 | 0.005 | 0.015 | 0.004 | 0.004 | CCN1CC2(C1)CN(Cc1ccc(Nc3nc(NCCCN)nc4c3ncn4C3CCCC3)cc1)C2 [Compound 20] | – | – | – | – | – | – | – | – | –
